Assays:
[1] = biological target: T1, Neu1 sialidase (Mus musculus, UniProt O35657); test: LPS-induced Neu1 sialidase activity in live RAW-blue macrophage cells (4MU-NeuAc fluorescence); type: cell-based; conditions: for IC50: LPS-induced sialidase activity on the cell surface of live RAW-blue macrophage cells, substrate 4MU-NeuAc, fluorescence at 1-2 min
T1 construct: endogenous in cells; host or cells: RAW-blue macrophage cells
Description: Inhibitory Potency of Compounds of the Application on Lipopolysaccharide (LPS)-Induced Neu1 Sialidase Activity in Live Raw-Blue Macrophage Cells
Compounds of the application were assessed for antiviral activity using an assay that detects sialidase activity on the surface of viable cells. […] Fluorescent images were taken at 1-2 minutes after adding the substrate using epi-fluorescent microscopy (40× objective). The mean fluorescence surrounding the cells for each of the images was measured using Image J software.

IC50 [1]	Compound	melting point	further results
–	CCOC(=O)C1=C[C@@H]2OC(C)=N[C@@H]2[C@@H](NC(=O)OC(C)(C)C)C1 [Compound 14, (3aR,4S,7aS)-ethyl 4-(tert-butoxycarbonylamino)-2-methyl-3a,4,5,7a-tetrahydrobenzo[d]oxazole-6-carboxylate]	45 to 49 °C	–
–	CCOC(=O)C1=C[C@@H](OC(CC)CC)[C@H](NC(C)=O)[C@@H](NC(=O)OC(C)(C)C)C1 [Compound 15, (3R,4R,5S)-ethyl 4-acetamido-5-(tert-butoxycarbonylamino)-3-(pentan-3-yloxy)cyclohex-1-enecarboxylate]	144 to 145 °C	–
140 nM	CC(=O)N[C@@H]1C=C[C@@](O)(C(=O)O)[C@H]2OC(C)(C)O[C@@H]12 [Compound 16, Sodium (3aS,4S,7R,7aS)-7-acetamido-4-hydroxy-2,2-dimethyl-3a,4,7,7a-tetrahydrobenzo[d][1,3]dioxole-4-carboxylate]	–	–
12.7 nM	CC(=O)N[C@@H]1/C(=N/O)C=C(C(=O)O)[C@H]2OC(C)(C)O[C@H]21 [Compound 17, Sodium (3aR,7R,7aS,E)-7-acetamido-6-(hydroxyimino)-2,2-dimethyl-3a,6,7,7a-tetrahydrobenzo[d][1,3]dioxole-4-carboxylate]	–	–
7410 nM	CC(=O)N[C@H]1[C@@H]2OC(C)(C)O[C@@H]2C(C(=O)O)=C[C@H]1O [Compound 19, Sodium (3aR,6R,7R,7aS)-7-acetamido-6-hydroxy-2,2-dimethyl-3a,6,7,7a-tetrahydrobenzo[d][1,3]dioxole-4-carboxylate]	–	–
–	CCOC(=O)C1=C[C@@H](OC(CC)CC)[C@H](NC(C)=O)[C@@H](N)C1 [oseltamivir phosphate 1a (Tamiflu ®), oseltamivir phosphate, reference compound]	–	inhibition of LPS-induced sialidase activity ([1]; RAW-blue macrophage cells, dose dependent manner): completely inhibited

From patent US8716333B2, “Process and compounds for the manufacture of oseltamivir and analogs thereof, and new antiviral agents” (Brock University, priority 2009, dated 2014)
